# Measured values taken from US20200316064A1, “CYCLIN-DEPENDENT KINASE 2 BIOMARKERS AND USES THEREOF” (Incyte Corporation, priority 2019, published 2020).
# Assays:
# CDK2/Cyclin E1 = target: T1, CDK2/Cyclin E1 (Homo sapiens, UniProt P24941); experiment: CDK2/Cyclin E1 HTRF enzyme activity assay (Example A); assay type: biochemical; conditions: 1 mM ATP
# T1 construct: utilize full-length human CDK2 co-expressed as N-terminal GST-tagged protein; GST (N); purchased Carna 04-165; host or cells: baculovirus expression system
# Protocol: CDK2/Cyclin E1 enzyme activity assays utilize full-length human CDK2 co-expressed as N-terminal GST-tagged protein with FLAG-Cyclin E1 in a baculovirus expression system (Carna Product Number 04-165). Assays are conducted in white 384-well polystyrene plates in a final reaction volume of 8 μL. CDK2/Cyclin E1 (0.25 nM) is incubated with compounds (40 nL serially diluted in DMSO) in the presence of ATP (50 μM or 1 mM) and 50 nM ULight™-labeled eIF4E-binding protein 1 (THR37/46) peptide (PerkinElmer) in assay buffer (containing 50 mM HEPES pH 7.5, 1 mM EGTA, 10 mM MgC2, 2 mM DTT, 0.05 mg/mL BSA, and 0.01% Tween 20) for 60 minutes at room temperature. The reactions are stopped by the addition of EDTA and Europium-labeled anti-phospho-4E-BP1 antibody (PerkinElmer), for a final concentration of 15 mM and 1.5 nM, respectively. HTRF signals are read after 1 hour at room temperature on a PHERAstar FS plate reader (BMG Labtech). Data is analyzed with IDBS XLFit and GraphPad Prism 5.0 software using a three or four parameter dose response curve to determine IC50 for each compound.
# [1] = tested on: CCNE1-amplified cell lines (COV318, OVCAR3, Fu-OV1, KLE, MKN1, AGS, NCI-N87); experiment: Cell cycle analysis by FACS in CCNE1-amplified cell lines; assay type: cell-based, human; conditions: 100 nM, 16 hours, vs DMSO
# Protocol: The effect of CDK2-knockdown in CCNE1-amplified versus CCNE1-non-amplified cell lines was evaluated. CCNE1-amplified cell lines (Fu-OV1 and KLE) or CCNE1-non-amplified cell lines (COV504 and Igrov1) were treated with a control (“ctrl”) or CDK2-specific small interfering RNAs (“siRNAs”) (“CDK2 siRNA-1” and “CDK2 siRNA-2”) (FIGS. 2A and 2B and 3A and 3B). Seventy-two hours after transfection with the siRNAs, the cells were harvested and subjected to cell cycle analysis by fluorescence activated cell sorting (“FACS”) (FIGS. 2A and 3A). Knockdown of CDK2 was confirmed by western blot (FIGS. 2B and 3B).
# The effect of CDK4/6-inhibition in CCNE1-amplified versus CCNE1-non-amplified cell lines was evaluated.
# A similar experiment was performed in a larger set of CCNE1-amplified cell lines (COV318 and OVCAR3) and CCNE1-non-amplified cell lines (COV504, OV56, and Igrov1) (FIG. 6).
# Next, the impact of CDK2-knockdown in these cells was evaluated. Mkn1, Ags, and NCI-N87 cells were treated with control or CDK2-specific siRNA. Three days-post-siRNA transfection, cell cycle phase distribution of the cells was evaluated by FACS. […]
# Bulk DNA was stained with DAPI. Compound-treated and DMSO treated control cells were acquired with CytoFlex (Beckman Coulter) and were analyzed using the Flow Jo software. […]
# [2] = tested on: Rb phosphorylated on serine 780 in CCNE1 amplified COV318 cells; experiment: CDK2 pRb (S780) HTRF cellular assay; assay type: cell-based, human; conditions: for IC50: Homo sapiens, FIG. 10B, read-out: IC50 in p-RB S780 HTRF cellular assay
# Protocol: CDK2 pRb ([…]) HTRF cellular assay enables the quantitative detection of Rb phosphorylated on […] in CCNE1 amplified COV318 cells. The assay comprised two antibodies: Europium cryptate labeled anti-Phospho-Rb […] antibody (donor) and d2 labeled anti-Rb antibody (acceptor). In brief, COV318 cells were seeded into the wells of 96-well plate at a density of 25,000 per well with 9-point, 3-fold serial diluted compounds and cultured overnight at 37 degree with 5% CO2. The final concentrations of compounds start from 3 μM. The next day cells were lysed in 70 μL 1× Phospho-total protein lysis buffer #2 (Cisbio), supplemented with 0.7 μL blocking buffer (Cisbio) and 1.4 μL protease inhibitor cocktail set III, EDTA-free (Calbiochem, 539134). 16 μL of cell lysates were mixed with 4 μL of the fluorophore-conjugated antibodies to a final concentration of 0.188 nM cryptate-labeled anti-Phospho-Rb […] antibody and 0.14 nM d2 labeled anti-Rb antibody. After 2 h of incubation at room temperature, HTRF signals were measured on the PHERAstar microplate reader (BMG Labtech), using 340 nm as excitation wavelength, a 620 nm filter for the Europium donor fluorescence, and a 665-nm filter for the acceptor fluorescence detection. HTRF signals were calculated as the HTRF ratio (ratio of fluorescence measured at 665 nm and 620 nm)×10000.
Structure (SMILES),IC50 (CDK2/Cyclin E1) [nM],further results
"C[C@@]1(O)CCC[C@H]1n1c(=O)ccc2cnc(NC3CCN(S(C)(=O)=O)CC3)nc21 [Compound A, 8-((1R,2R)-2-hydroxy-2-methylcyclopentyl)-2-((1-(methylsulfonyl)piperidin-4-yl)amino)pyrido[2,3-d]pyrimidin-7(8H)-one]",,"percentage of S phase cells ([1]; COV318, control siRNA-treated): significantly decreased; percentage of S phase cells ([1]; COV318, p16 knocked down by siRNA): not significantly decreased; Rb phosphorylation on serine 780 [2]: inhibited Rb phosphorylation on serine 780; IC50 [2]: 37 nM"
"CC1(C)Cc2cnc(NC3CCN(S(C)(=O)=O)CC3)nc2N(C2CCOC2)C1=O (racemic) [Example A6, 6,6-dimethyl-2-((1-(methylsulfonyl)piperidin-4-yl)amino)-8-(tetrahydrofuran-3-yl)-5,8-dihydropyrido[2,3-d]pyrimidin-7(6H)-one]",100 to 500,
"CC1(C)Cc2cnc(Nc3ccc(S(N)(=O)=O)cc3)nc2N(C2CCCC2)C1=O [Example A1, 4-((8-cyclopentyl-6,6-dimethyl-7-oxo-5,6,7,8-tetrahydropyrido[2,3-d]pyrimidin-2-yl)amino)benzenesulfonamide]",≤ 50,
CC(=O)c1c(C)c2cnc(Nc3ccc(N4CCNCC4)cn3)nc2n(C2CCCC2)c1=O [palbociclib],,IC50 [2]: > 3000 nM
"Cn1nccc1CN1C(=O)C(C)(C)Cc2cnc(NC3CCN(S(C)(=O)=O)CC3)nc21 [Example A5, 6,6-dimethyl-8-((1-methyl-1H-pyrazol-5-yl)methyl)-2-((1-(methylsulfonyl)piperidin-4-yl)amino)-5,8-dihydropyrido[2,3-d]pyrimidin-7(6H)-one]",100 to 500,

# Continued, in another order:
IC50 (CDK2/Cyclin E1) [nM],Structure (SMILES),further results
≤ 50,"CCC(C(F)F)N1C(=O)C2(CC2)c2cnc(NC3CCN(S(C)(=O)=O)CC3)nc21 (racemic) [Example B10, 7′-(1,1-difluorobutane-2-yl)-2′-((1-(methylsulfonyl)piperidin-4-yl)amino)spiro[cyclopropane-1,5′-pyrrolo[2,3-d]pyrimidin]-6′(7′H)-one]",
100 to 500,"Cc1ccccc1N1C(=O)C2(CC2)c2cnc(NC3CCN(S(C)(=O)=O)CC3)nc21 [Example B9, 2′-((1-(methylsulfonyl)piperidin-4-yl)amino)-7′-(o-tolyl)spiro[cyclopropane-1,5′-pyrrolo[2,3-d]pyrimidin]-6′(7′H)-one]",
100 to 500,"O=C1N(C2CCCC2)c2nc(NC3CCN(S(=O)(=O)C4CCOCC4)CC3)ncc2C12CC2 [Example B4, 7′-cyclopentyl-2′-((1-((tetrahydro-2H-pyran-4-yl)sulfonyl)piperidin-4-yl)amino)spiro[cyclopropane-1,5′-pyrrolo[2,3-d]pyrimidin]-6′(7′H)-one]",
≤ 50,"CCn1cnc(S(=O)(=O)N2CCC(Nc3ncc4c(n3)N(c3cc(F)ccc3Cl)C(=O)C43CC3)CC2)c1 [Example B19, 7′-(2-chloro-5-fluorophenyl)-2′-((1-((1-ethyl-1H-imidazol-4-yl)sulfonyl)piperidin-4-yl)amino)spiro[cyclopropane-1,5′-pyrrolo[2,3-d]pyrimidin]-6′(7′H)-one]",
≤ 50,"C[C@@H](C1CC1)N1C(=O)C2(CC2)c2cnc(NC3CCN(S(=O)(=O)c4ccc(=O)[nH]c4)CC3)nc21 [Example B15, (S)-7′-(1-cyclopropylethyl)-2′-((1-((6-oxo-1,6-dihydropyridin-3-yl)sulfonyl)piperidin-4-yl)amino)spiro[cyclopropane-1,5′-pyrrolo[2,3-d]pyrimidin]-6′(7′H)-one]",
≤ 50,"C[C@@H](C1CC1)N1C(=O)C2(CC2)c2cnc(NC3CCN(S(=O)(=O)c4ncc[nH]4)CC3)nc21 [Example B14, (S)-2′-((1-((1H-imidazol-2-yl)sulfonyl)piperidin-4-yl)amino)-7′-(1-cyclopropylethyl)spiro[cyclopropane-1,5′-pyrrolo[2,3-d]pyrimidin]-6′(7′H)-one]",
50 to 100,"Cc1c(N2C(=O)C3(CC3)c3cnc(NC4CCN(S(C)(=O)=O)CC4)nc32)cnn1C [Example B11, 7′-(1,5-dimethyl-1H-pyrazol-4-yl)-2′-((1-(methylsulfonyl)piperidin-4-yl)amino)spiro[cyclopropane-1,5′-pyrrolo[2,3-d]pyrimidin]-6′(7H)-one]",
100 to 500,"CC1CC(Nc2ncc3c(n2)N(C2CCCC2)C(=O)C32CC2)CCN1S(C)(=O)=O (stereo not shown) [Example B1, 7′-cyclopentyl-2′-((2-methyl-1-(methylsulfonyl)piperidin-4-yl)amino)spiro[cyclopropane-1,5′-pyrrolo[2,3-d]pyrimidin]-6′(7′H)-one]",
≤ 50,"CC1CCCC1N1C(=O)C2(CC2)c2cnc(NC3CCN(S(C)(=O)=O)CC3)nc21 (mixture of isomers) [Example B8, 7′-(2-methylcyclopentyl)-2′-((1-(methylsulfonyl)piperidin-4-yl)amino)spiro[cyclopropane-1,5′-pyrrolo[2,3-d]pyrimidin]-6′(7′H)-one]",
100 to 500,"CS(=O)(=O)N1CCC(Nc2ncc3c(n2)N(C2CCCC2)C(=O)C32CC2)CC1 [Example B2, 7′-cyclopentyl-2′-((1-(methylsulfonyl)piperidin-4-yl)amino)spiro[cyclopropane-1,5′-pyrrolo[2,3-d]pyrimidin]-6′(7′H)-one]",
≤ 50,"O=C1N(C2CCCC2)c2nc(NC3CCN(S(=O)(=O)C4CC4)CC3)ncc2C12CC2 [Example B3, 7′-cyclopentyl-2′-((1-(cyclopropylsulfonyl)piperidin-4-yl)amino)spiro[cyclopropane-1,5′-pyrrolo[2,3-d]pyrimidin]-6′(7′H)-one]",
